The supplement of paper PMC11451515

System: NOMO1
Assay: cell viability relative to DMSO control; higher = less cytotoxic
Settings: 48 h
Method in brief: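 Leukemia cells (NOMO1 or SEM, 500 cells/well; P12-Ichikawa, 1000 cells/well) were seeded in 5 μl in 1536-well plates after at least four passages of adaptation to each medium. They received library compounds in DMSO by pin dosing, 11 threefold points from 47 μM to 0.79 nM. Luminescence with CellTiter-Glo One was read after 48 h at 37°C. Viability is stated per plate relative to DMSO wells, with cell-free wells as background.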

CNCc1ccc(-c2[nH]c3cc(F)cc4c3c2CCNC4=O)cc1
cell viability (RPMI 5 mM glucose + 10% FBS, 0.000781 µM): 111% | cell viability (RPMI 5 mM glucose + 10% FBS, 0.00234 µM): 117% | cell viability (RPMI 5 mM glucose + 10% FBS, 0.00702 µM): 126% | cell viability (RPMI 5 mM glucose + 10% FBS, 0.0211 µM): 147% | cell viability (RPMI 5 mM glucose + 10% FBS, 0.0632 µM): 133% | cell viability (RPMI 5 mM glucose + 10% FBS, 0.19 µM): 127% | cell viability (RPMI 5 mM glucose + 10% FBS, 0.569 µM): 128% | cell viability (RPMI 5 mM glucose + 10% FBS, 1.71 µM): 130% | cell viability (RPMI 5 mM glucose + 10% FBS, 5.12 µM): 120% | cell viability (RPMI 5 mM glucose + 10% FBS, 15.4 µM): 132% | cell viability (RPMI 5 mM glucose + 10% FBS, 46.1 µM): 125% | cell viability (RPMI 5 mM glucose + 10% dialyzed FBS, 0.000781 µM): 103% | cell viability (RPMI 5 mM glucose + 10% dialyzed FBS, 0.00234 µM): 120% | cell viability (RPMI 5 mM glucose + 10% dialyzed FBS, 0.00702 µM): 131% | cell viability (RPMI 5 mM glucose + 10% dialyzed FBS, 0.0211 µM): 155% | cell viability (RPMI 5 mM glucose + 10% dialyzed FBS, 0.0632 µM): 139% | cell viability (RPMI 5 mM glucose + 10% dialyzed FBS, 0.19 µM): 139% | cell viability (RPMI 5 mM glucose + 10% dialyzed FBS, 0.569 µM): 125% | cell viability (RPMI 5 mM glucose + 10% dialyzed FBS, 1.71 µM): 136% | cell viability (RPMI 5 mM glucose + 10% dialyzed FBS, 5.12 µM): 151% | cell viability (RPMI 5 mM glucose + 10% dialyzed FBS, 15.4 µM): 145% | cell viability (RPMI 5 mM glucose + 10% dialyzed FBS, 46.1 µM): 141%
